Measured values as given in PMC9048848 (RSC Advances, 2020).
pKd: −log10 of the molar value.

Molecular target: T1, PTP1B (Homo sapiens, UniProt P18031)
T1 sequence (P18031 1-321): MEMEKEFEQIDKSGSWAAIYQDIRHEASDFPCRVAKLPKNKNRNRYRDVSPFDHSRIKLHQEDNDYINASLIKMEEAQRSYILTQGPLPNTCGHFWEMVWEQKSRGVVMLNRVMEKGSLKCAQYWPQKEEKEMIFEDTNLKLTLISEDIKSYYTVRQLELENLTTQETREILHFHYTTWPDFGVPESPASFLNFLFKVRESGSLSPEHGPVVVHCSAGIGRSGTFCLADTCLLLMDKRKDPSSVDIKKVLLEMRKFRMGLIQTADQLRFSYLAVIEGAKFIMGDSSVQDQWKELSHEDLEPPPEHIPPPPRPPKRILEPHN
Assay: SPR
Assay type: binding

pKd: 5.48
SMILES: CCOCc1cc(O)c(O)c(Br)c1Cc1cc(O)c(O)c(Br)c1Br [BPN, 3,4-Dibromo-5-(2-bromo-6-(ethoxymethyl)-3,4-dihydroxybenzyl)benzene-1,2-diol]
